Calls of active or inactive are those of the source.
Tests used:
[1] = target: T1, Polyadenylate-binding protein 1 (Homo sapiens, UniProt P11940); assay: MLLE binding blockers, Cy5 peptide tracer – biochemical, fluorescence polarization, Cy5-PAM2 peptide, secondary, miRNA deadenylation inhibitor project, dose response (AID 602260); format: functional; conditions: read-out: IC50_Mean
[2] = target: T1, Polyadenylate-binding protein 1; assay: MLLE domain peptide-binding blockers, IC50 – biochemical, fluorescence polarization, FITC-PAM2 peptide, dose response (AID 602259); format: functional; conditions: read-out: IC50_Mean
P388/ADR = assay: cells; format: functional; conditions: Mus musculus
SN12K1 = assay: cells; format: functional; conditions: Homo sapiens
P388 = assay: cells; format: functional; conditions: Mus musculus
Protein skinhead-1 = target: T2, Protein skinhead-1 (Caenorhabditis elegans, UniProt P34707); format: functional
T2 sequence (P34707 whole entry): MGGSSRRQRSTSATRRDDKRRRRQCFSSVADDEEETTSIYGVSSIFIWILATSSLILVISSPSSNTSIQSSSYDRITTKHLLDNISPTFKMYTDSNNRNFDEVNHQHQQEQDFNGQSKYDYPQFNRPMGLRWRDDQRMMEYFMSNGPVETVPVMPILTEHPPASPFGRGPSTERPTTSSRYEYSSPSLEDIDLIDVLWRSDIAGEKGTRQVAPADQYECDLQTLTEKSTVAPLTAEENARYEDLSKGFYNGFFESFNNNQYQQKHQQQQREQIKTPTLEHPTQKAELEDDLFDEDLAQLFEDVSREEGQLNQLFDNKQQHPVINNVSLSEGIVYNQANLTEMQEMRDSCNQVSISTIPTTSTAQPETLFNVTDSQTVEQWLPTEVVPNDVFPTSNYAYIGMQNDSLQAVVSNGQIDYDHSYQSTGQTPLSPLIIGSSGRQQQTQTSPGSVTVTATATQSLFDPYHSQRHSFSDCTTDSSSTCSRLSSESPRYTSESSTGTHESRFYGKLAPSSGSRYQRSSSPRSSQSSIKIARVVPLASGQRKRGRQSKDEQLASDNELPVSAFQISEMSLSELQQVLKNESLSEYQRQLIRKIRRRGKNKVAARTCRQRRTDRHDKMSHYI

H9c2 = assay: cells; format: functional, cell-based; conditions: Rattus norvegicus, H9c2, Myocardium;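 further: confirmatory concentration-response retest of ultra-high-throughput screening hits for modulation of myocardial damage; cell death induced by hydrogen peroxide oxidative stress; compound pretreatment for 60 min then peroxide exposure for 2 h; potency is for protecting the cells against peroxide damage rather than for killing them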
[3] = Luminescence Cell-Based Dose Response HTS to Identify Activators of Luciferase Translation or Activity in H4 […] Cells. [Related pubchem assays: 1829 (Project Summary), 1814 (Primary HTS)]; format: functional
H4 = assay: Luminescence Cell-Based Dose Response HTS to Identify Activators of 5'UTR Stem-Loop Driven Prion Protein mRNA Translation in H4 Neuroglioblastoma Cells. [Related pubchem assays: 1829 (Project Summary), 1814 (Primary HTS)]; format: functional; conditions: Homo sapiens
[4] = test system: Streptococcus sp. 'group A'; assay: Streptococcus pyogenes SK(-)GAS viability under kanamycin – luminescence, BacTiterGlo, confirmation, counter-screen for streptokinase expression inhibitor project, dose response (AID 1900); format: functional, organism-based
Streptokinase A = target: T3, Streptokinase A (Streptococcus pyogenes serotype M1, UniProt P10520); assay: viability-normalized secreted streptokinase activity reduction – plasminogen activation absorbance, OD405, dose response (AID 1914); format: functional, Streptococcus pyogenes M1 GAS;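 further: secreted streptokinase activity via plasminogen activation per viability signal from cell pellet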
T3 sequence (P10520 whole entry): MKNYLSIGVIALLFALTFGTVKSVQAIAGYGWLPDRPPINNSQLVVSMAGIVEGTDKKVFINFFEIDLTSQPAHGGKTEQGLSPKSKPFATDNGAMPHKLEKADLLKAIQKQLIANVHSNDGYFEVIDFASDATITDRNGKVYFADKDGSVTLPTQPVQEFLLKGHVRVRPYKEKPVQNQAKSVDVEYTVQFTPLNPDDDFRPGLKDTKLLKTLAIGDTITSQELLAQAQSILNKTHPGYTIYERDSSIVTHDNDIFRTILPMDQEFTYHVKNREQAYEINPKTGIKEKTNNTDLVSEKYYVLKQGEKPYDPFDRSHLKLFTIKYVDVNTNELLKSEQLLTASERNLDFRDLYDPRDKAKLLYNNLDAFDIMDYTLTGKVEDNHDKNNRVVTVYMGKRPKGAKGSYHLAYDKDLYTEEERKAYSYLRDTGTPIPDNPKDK

[5] = Trypanosoma cruzi growth suppression in host cells – NIH3T3 host cells, beta-gal luminescence, confirmation (AID 2044); format: functional, cell-based;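 further: intracellular parasites grown in NIH/3T3 mouse fibroblasts as host cells; luminescent beta-galactosidase reporter signal from transgenic T. cruzi replicating inside host cells; inhibitors lower the luminescence signal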
[6] = NIH3T3 cell viability loss – ATP luminescence, mouse fibroblasts, counter-screen, dose response (AID 2010); format: functional, cell-based;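 further: cells exposed to compound for about 90 hours before reading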
Streptococcus = assay: GAS UMAA2166 growth inhibition – luminescence, BacTiterGlo, counter-screen for streptokinase expression inhibitor project, dose response (AID 1915); format: functional, organism-based;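 further: potency for reduction of bacterial viability or growth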
[7] = reduction of Shn3 3'UTR-driven luciferase in osteoblasts – cell-based, Clone20 osteoblasts, firefly luciferase, cherry-picked, dose response (AID 624132); format: functional;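 further: firefly luciferase luminescence from reporter carrying the Shn3 3'UTR in osteoblasts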
[8] = loss of viability in HepG2 cells – cell-based, CellTiter-Glo, cherry-picked, cytotoxicity control for Shn3 inhibitor project, dose response (AID 624134); format: functional
[9] = non-specific 3'UTR reporter inhibition in Clone20-Shn3RL – cell-based, Renilla luciferase, cherry-picked, counter-screen for Shn3 inhibitor project, dose response (AID 624133); format: functional
Cytochrome P450 2D6 = Cytochrome P450 2D6 (Homo sapiens, UniProt P10635);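 further: CYP2D6 member of a cytochrome P450 panel assay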
Sequence of Cytochrome P450 2D6 (P10635 whole entry): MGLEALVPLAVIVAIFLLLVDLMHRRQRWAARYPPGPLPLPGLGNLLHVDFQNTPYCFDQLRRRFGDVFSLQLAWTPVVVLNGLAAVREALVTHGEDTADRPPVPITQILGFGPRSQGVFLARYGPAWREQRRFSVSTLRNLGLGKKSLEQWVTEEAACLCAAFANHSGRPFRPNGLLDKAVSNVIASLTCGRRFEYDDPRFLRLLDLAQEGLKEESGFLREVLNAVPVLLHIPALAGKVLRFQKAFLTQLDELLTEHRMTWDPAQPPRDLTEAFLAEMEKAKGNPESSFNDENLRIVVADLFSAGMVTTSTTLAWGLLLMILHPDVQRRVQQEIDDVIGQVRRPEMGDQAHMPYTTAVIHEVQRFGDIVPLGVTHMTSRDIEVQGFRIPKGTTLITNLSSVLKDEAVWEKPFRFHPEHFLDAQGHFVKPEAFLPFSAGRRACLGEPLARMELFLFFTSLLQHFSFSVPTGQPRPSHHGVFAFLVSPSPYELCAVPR

T1 sequence (P11940 whole entry, the tested form may be a part): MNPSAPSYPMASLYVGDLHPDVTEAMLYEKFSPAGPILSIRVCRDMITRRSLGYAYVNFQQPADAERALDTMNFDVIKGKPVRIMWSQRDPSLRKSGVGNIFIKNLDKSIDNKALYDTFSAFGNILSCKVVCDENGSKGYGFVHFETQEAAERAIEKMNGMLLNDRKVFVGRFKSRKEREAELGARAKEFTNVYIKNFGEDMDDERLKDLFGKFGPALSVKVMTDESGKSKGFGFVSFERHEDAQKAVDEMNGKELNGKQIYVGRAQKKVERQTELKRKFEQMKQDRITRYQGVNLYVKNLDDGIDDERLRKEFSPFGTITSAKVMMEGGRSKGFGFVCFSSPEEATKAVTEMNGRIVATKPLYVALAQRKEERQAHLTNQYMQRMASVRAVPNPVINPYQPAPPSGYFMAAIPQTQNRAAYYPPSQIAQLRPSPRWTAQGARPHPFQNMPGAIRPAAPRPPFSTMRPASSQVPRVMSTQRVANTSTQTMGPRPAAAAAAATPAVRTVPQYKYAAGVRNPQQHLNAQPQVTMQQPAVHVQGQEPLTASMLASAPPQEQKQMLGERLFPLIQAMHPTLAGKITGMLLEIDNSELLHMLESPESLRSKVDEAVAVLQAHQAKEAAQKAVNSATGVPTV

SMILES: COc1ccc2oc(=O)c(C(=O)OCc3ccccc3)cc2c1
- IC50 [1]: > 66 µM (inactive)
- IC50 [2]: > 66 µM (inactive)

SMILES: CC(=O)C1=C(O)C(=O)N(C)C1c1ccccc1[N+](=O)[O-] (stereo not drawn)
- IC50 [1]: > 66 µM (inactive)
- IC50 [2]: > 66 µM (inactive)

SMILES: O=C(NC(=S)Nc1ncccn1)c1ccccc1Cl
- IC50 [1]: > 66 µM (inactive)
- IC50 [2]: > 66 µM (inactive)

SMILES: c1ccc2cc3c(cc2c1)OP1(Oc2cccc4cccnc24)(O3)Oc2cc3ccccc3cc2O1
- GI50 (P388/ADR): 1.42 µM (inactive)
- GI50 (SN12K1): 3.31 µM (inactive)
- GI50 (P388): 1.2 µM (inactive)

SMILES: O=NN(CCCl)C(=O)NCCCl [CARMUSTINE]
- GI50 (P388/ADR): 7.29 µM (inactive)
- GI50 (SN12K1): 58.3 µM (inactive)
- GI50 (P388): 6.62 µM (inactive)

SMILES: Fc1ccc(-n2nnc(-c3nccs3)n2)cc1
- IC50 (Protein skinhead-1): 22.8 µM (active)

SMILES: Cc1cc2ccccn2c1C(=O)Nc1cccc(Cl)c1
- IC50 (Protein skinhead-1): > 100 µM (inactive)

SMILES: COc1ccccc1OCC(=O)Nc1sc2c(c1C(=O)NCC1CCCO1)CCC2 (stereo not drawn)
- IC50 (H9c2): 30.4 µM (inactive)

SMILES: S=C(NCCCCCCNC(=S)Nc1c2ccccc2nc2ccccc12)Nc1c2ccccc2nc2ccccc12
- GI50 (P388/ADR): 65 µM (inactive)
- GI50 (SN12K1): 6.22 µM (inactive)
- GI50 (P388): 44.5 µM (inactive)

SMILES: Cc1c(NC(=O)Cn2[nH]c(=O)c3ccccc3c2=O)c(=O)n(-c2ccccc2)n1C
- IC50 (H9c2): 38.5 µM (inactive)

SMILES: COc1ccccc1C(=O)NCCn1ccc2ccccc21
- IC50 [1]: > 66 µM (inactive)
- IC50 [2]: > 66 µM (inactive)

SMILES: N#Cc1c(O)nc(-c2ccco2)c2c1CCCC2
- IC50 [1]: > 66 µM (inactive)
- IC50 [2]: > 66 µM (inactive)

SMILES: CCCCOc1ccc(C(=O)OC2CC(C)N(C)CC2C)cc1 (stereo not drawn)
- IC50 (Protein skinhead-1): 27.6 µM (active)

SMILES: C=CC1(NC(=O)c2ccccc2)CCC(C(C)(C)C)CC1 (stereo not drawn)
- GI50 (P388/ADR): 22.2 µM (inactive)
- GI50 (SN12K1): 32.4 µM (inactive)
- GI50 (P388): 12.2 µM (inactive)

SMILES: CCOc1cccc(-c2nn3c(-c4ccccn4)nnc3s2)c1
- IC50 (H9c2): > 79 µM (inactive)

SMILES: O=C(NN=C(NS(=O)(=O)c1ccc(Cl)cc1)c1ccccc1)c1cccc(Cl)c1
- EC50 [3]: 7.54 µM (active)
- EC50 (H4): > 120 µM (not active)

SMILES: COc1ccccc1C(=O)Nc1nc(-c2ccc3c(c2)OCCO3)cs1
- IC50 (H9c2): > 79 µM (inactive)

SMILES: COc1ccc(C(C)=O)cc1COC(=O)Cc1nnc(O)c2ccccc12
- IC50 (H9c2): > 79 µM (inactive)

SMILES: Cc1c(Cl)cccc1N=C(S)NCCc1ccc(S(N)(=O)=O)cc1
- IC50 [1]: > 66 µM (inactive)
- IC50 [2]: > 66 µM (inactive)

SMILES: CCOC(=O)C[n+]1ccc2c([nH]c3cc(OC)ccc32)c1C
- GI50 (P388/ADR): 35.1 µM (inactive)
- GI50 (SN12K1): > 80.2 µM (inactive)
- GI50 (P388): 38.9 µM (inactive)

SMILES: Cc1cnc(C(=O)Nc2ccccc2-c2ccc(C)o2)cn1
- IC50 (Protein skinhead-1): > 100 µM (inactive)

SMILES: C1CN1c1nc(N2CC2)nc(N2CC2)n1
- GI50 (P388/ADR): 0.466 µM (active)
- GI50 (SN12K1): 5.21 µM (inactive)
- GI50 (P388): 0.465 µM (active)

SMILES: O=C(/C=C/c1ccccc1)NC(NC(=S)Nc1ccc(Cl)cc1)C(Cl)(Cl)Cl (stereo not drawn)
- EC50 [4]: 5.79 µM (active)
- EC50 (Streptokinase A): > 150 µM (not active)
- EC50 [5]: 1.08 µM (active)
- EC50 [6]: > 60 µM (not active)
- EC50 (Streptococcus): > 150 µM (not active)
- AC50 [7]: 5.13 µM (active)
- AC50 [8]: 26.7 µM (active)
- AC50 [9]: 30.4 µM (active)
- AC50 (Cytochrome P450 2D6): 7.94 µM (inconclusive)

SMILES: O=[N+]([O-])c1cnccc1-n1nnc2ccccc21
- GI50 (SN12K1): 27.7 µM (inactive)
- GI50 (P388): 7.96 µM (inactive)

SMILES: CCC(OC(=O)CC1Sc2ccccc2NC1=O)C(=O)NCC1CCCO1 (stereo not drawn)
- IC50 [1]: > 66 µM (inactive)
- IC50 [2]: > 66 µM (inactive)

SMILES: Cc1cc(OCC(O)CN2CCN(C)CC2)ccc1C(C)C (stereo not drawn)
- IC50 (Protein skinhead-1): > 100 µM (inactive)

SMILES: CN(C)S(=O)(=O)c1cccc(NC(=O)c2cccc(S(=O)(=O)N3CCc4ccccc43)c2)c1
- AC50 [7]: 3.92 µM (active)
- AC50 [8]: 60.9 µM (active)
- AC50 [9]: 11.7 µM (active)

SMILES: O=C(CN(Cc1ccco1)C(=O)CNS(=O)(=O)c1ccc(Cl)cc1)NC1CCCCC1
- IC50 (Protein skinhead-1): > 100 µM (inactive)

SMILES: O=S(=O)(c1ccc(Cl)cc1)c1cc(O)ccc1O
- IC50 (H9c2): 12.4 µM (active)

SMILES: CC(C)C1C(=O)N(Cc2cn(CCC3OCCO3)nn2)CCS(=O)(=O)N1Cc1ccc(-c2ccc(Cl)cc2)cc1 (stereo not drawn)
- AC50 [7]: 2.13 µM (active)
- AC50 [8]: > 70 µM (inactive)
- AC50 [9]: 2.83 µM (active)

SMILES: CCN1C(=O)[C@H]2[C@H]3CN=C(SCC(=O)c4ccccc4)N3[C@@](C)(C(=O)OC)[C@H]2C1=O
- IC50 [1]: > 66 µM (inactive)
- IC50 [2]: > 66 µM (inactive)

SMILES: O=C(Nc1ccc(N2CCOCC2)c(Cl)c1)c1ccc([N+](=O)[O-])o1
- AC50 [7]: 6.23 µM (active)
- AC50 [8]: 24.9 µM (active)
- AC50 [9]: 14.7 µM (active)

SMILES: COc1cc2c(C#CCCO)c(-c3ccsc3)oc(=O)c2cc1OC
- IC50 (H9c2): 20.7 µM (active)

SMILES: Brc1ccc(OCc2n[nH]c(-c3ccccn3)n2)cc1
- IC50 (Protein skinhead-1): > 100 µM (inactive)

SMILES: Cc1ccc(OP2(=O)Oc3ccc4ccccc4c3CN2c2ccc(Cl)cc2)cc1C (stereo not drawn)
- GI50 (P388/ADR): > 100 µM (inactive)
- GI50 (SN12K1): > 100 µM (inactive)
- GI50 (P388): > 100 µM (inactive)

SMILES: COc1cccc(CN2CCN(C(=O)c3cc(-c4cccnc4)nc4ccc(C)cc34)CC2)c1
- IC50 (H9c2): 11.6 µM (active)

SMILES: CSCSCC(N)CO.Cc1[nH]c(=O)[nH]c(=O)c1/C=C/C(=O)O
- GI50 (P388/ADR): > 625 µM (inactive)
- GI50 (SN12K1): > 625 µM (inactive)
- GI50 (P388): > 625 µM (inactive)

SMILES: Brc1ccc2nc(N3CCCC3)sc2c1
- IC50 (Protein skinhead-1): 79.4 µM (inactive)

SMILES: O=C(O)C1CCC(=O)N1S(=O)(=O)c1ccccc1 (stereo not drawn)
- GI50 (P388/ADR): > 100 µM (inactive)
- GI50 (SN12K1): > 100 µM (inactive)
- GI50 (P388): > 100 µM (inactive)

SMILES: CCN(c1c(C)n(C)n(-c2ccccc2)c1=O)S(C)(=O)=O
- IC50 [1]: > 66 µM (inactive)
- IC50 [2]: > 66 µM (inactive)

From ChEMBL document CHEMBL1201862, “PubChem BioAssay data set” (2004)
